In patent US20170158702A1, “MULTIVALENT RAS BINDING COMPOUNDS” (KYRAS THERAPEUTICS, INC., priority 2015, published 2017):
Structures can show the parent of a compound that is named as a salt.

Experiments:
Type in all cases: cell-based
NCI-H460 = assay: Viability assay with NCI-H460 (CellTiter-Glo cytotoxicity assay, 72 h); conditions: NCI-H460 cell line, 72 h after compounds addition
How it was run: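 NCI-H460 cells, RPMI 1640 + 10% FBS, seeded 1200/well and adhered overnight, then exposed to compounds at 9 points, 2-fold dilution, in triplicate, 0.5% DMSO final. Cellular ATP measured by CellTiter-Glo luminescence 72 h after addition.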

MIA PaCa-2 = assay: Viability assay with MIA PaCa-2; conditions: MIA PaCa-2, viability assay per Example 57
How it was run: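 MIA PaCa-2 cells were seeded at 1200/well, allowed to adhere overnight, then treated in triplicate with 9-point 2-fold compound dilutions at 0.5% final DMSO. Viability was measured as cellular ATP by CellTiter-Glo luminescence 72 h after compound addition.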

U2OS = assay: Viability assay with U2OS; conditions: viability assay per Example 57
Method: (§1) NCI-H460 (Epithelial lung tissue; carcinoma; large cell lung cancer) were cultured in RPMI Medium 1640 (Invitrogen-22400105) supplemented with 10% fetal bovine serum (FBS; Invitrogen-10099141). All the cell lines were maintained in a humidified incubator at 37° C. with 5% CO2. Cell culture media and supplements were purchased from Invitrogen, and tissue culture flasks were purchased from Corning, 96-well plates were purchased from Greiner. CellTiter-Glo Luminescent Cell Viability Assay kits were purchased from Promega (Promega-G7573), cells counter Vi-Cell was purchased from Beckman, D300e digital dispenser was purchased from Tecan, detection instrument Envision was purchased from PerkinElmer.
(§2) Paclitaxel was purchased from SELLECK, test compounds, such as any one of the compounds disclosed herein, attained solubility in DMSO and when diluted into culture media. DMSO, solutions containing the test compounds, and culture media were warmed to 37° C. or room temperature for the solution preparation and dilutions.
(§3) NCI-H460 Cell line were seeded in 96-well plates (1200/well) and allowed to adhere to overnight (100 uL/well), for drug treatments with 2 fold dilution, 9 dose points, triplicates or vehicle control, compound stock solutions were prepared in DMSO and use D300e digital dispenser to add compounds to the wells to give the indicated final drug concentrations. Final DMSO concentration was 0.5%. Cellular ATP concentrations were assessed by using the CellTiter-Glo Cell Viability Assay as per the manufacturer's instructions 72 h after compounds addition. Additional cells lines were assayed with any one of the compounds disclosed herein according to the procedures described for the viability assay with NCI-H460.
The viability assay with U2OS (epithelial bone tissue; osteosarcoma) was performed with compounds listed in Table 17 according to the procedures described in Example 57.

HT-29 = assay: Viability assay with HT-29; conditions: HT-29, viability assay per Example 57
How it was run: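 Cells seeded 1200/well, adhered overnight, then treated with 9-point 2-fold compound dilutions in triplicate (0.5% final DMSO). Viability taken as cellular ATP by CellTiter-Glo luminescence 72 h after compound addition.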

NCI-H2023 = assay: Viability assay with NCI-H2023; conditions: NCI-H2023, viability assay per Example 57
Method: as §1, §2, §3
A viability assay with NCI-H2023 (stage 3A, adenocarcinoma; non-small cell lung cancer) was performed with compounds listed in Table 16 according to the procedures described in Example 57.

Measured: EC50

N#Cc1cccc(-c2cccc(Cl)c2CN2CCN(Cc3ccc4c(c3)c(-c3cccc(C#N)c3)cn4CCCN)CC2)c1 [C4; HCl]
≤ 5 µM: NCI-H460 | MIA PaCa-2 | U2OS

NCCCn1cc(-c2ccccc2CN)c2cc(CN3CCN(Cc4c(Cl)cccc4Cl)CC3)ccc21 [C162; HCl]
≤ 5 µM: U2OS | HT-29

NCCCn1cc(-c2ccc(OC(F)(F)F)cc2)c2cc(CN3CCN(Cc4cc(F)ccc4Cl)CC3)ccc21 [C165; HCl]
≤ 5 µM: NCI-H460 | MIA PaCa-2 | U2OS

NCCCn1cc(-c2ccccc2Cl)c2cc(CN3CCN(Cc4c(Cl)cccc4Cl)CC3)ccc21 [C167; HCl]
≤ 5 µM: NCI-H460 | MIA PaCa-2 | U2OS

NCCCn1cc(-c2ccc(OC(F)(F)F)cc2)c2cc(CN3CCN(Cc4cccc(OC(F)(F)F)c4)CC3)ccc21 [C163; HCl]
≤ 5 µM: NCI-H460 | MIA PaCa-2 | U2OS

COc1ccc(F)c(CN2CCN(Cc3ccc4c(c3)c(-c3ccc(OC(F)(F)F)cc3)cn4CCCN)CC2)c1 [C1; HCl]
≤ 5 µM: NCI-H460 | MIA PaCa-2 | U2OS

COc1cccc(CN2CCN(Cc3ccc4c(c3)c(-c3ccc(OC(F)(F)F)cc3)cn4CCCN)CC2)c1Cl [C12; HCl]
≤ 5 µM: NCI-H460 | MIA PaCa-2 | U2OS

N#Cc1ccccc1-c1cn(CCCN)c2ccc(CN3CCN(Cc4c(Cl)cccc4Cl)CC3)cc12 [C8; HCl]
≤ 5 µM: NCI-H460 | MIA PaCa-2 | U2OS

COc1ccc(-c2cn(CCCN)c3ccc(CN4CC5CCC(C4)N5Cc4ccccc4Cl)cc23)cc1 [C158; HCl]
≤ 5 µM: NCI-H460 | MIA PaCa-2 | U2OS

NCCCn1cc(-c2cccc(CN)c2)c2cc(CN3CCN(Cc4c(Cl)cccc4Cl)CC3)ccc21 [C168; HCl]
≤ 5 µM: NCI-H460 | MIA PaCa-2 | U2OS | HT-29

NCCCn1cc(-c2ccc(OC(F)(F)F)cc2)c2cc(CN3CCC(Cc4ccccc4Cl)CC3)ccc21 [C3; HCl]
≤ 5 µM: NCI-H460 | MIA PaCa-2 | U2OS

NCCCn1cc(-c2ccc(CN)cc2)c2cc(CN3CCN(Cc4c(Cl)cccc4Cl)CC3)ccc21 [C10; Formic acid]
≤ 5 µM: NCI-H460 | MIA PaCa-2 | U2OS

NCCCCn1cc(-c2ccc(OC(F)(F)F)cc2)c2cc(CN3CCN(Cc4c(Cl)cccc4Cl)CC3)ccc21 [C43; HCl]
≤ 5 µM: NCI-H460 | MIA PaCa-2 | NCI-H2023 | U2OS

COc1ccccc1-c1cn(CCCN)c2ccc(CN3CCN(Cc4c(Cl)cccc4Cl)CC3)cc12 [C2; HCl]
≤ 5 µM: NCI-H460 | MIA PaCa-2 | U2OS

NCCCn1cc(-c2ccc(OC(F)(F)F)cc2)c2cc(CN3CCN(Cc4cc(Cl)ccc4Cl)CC3)ccc21 [C156; HCl]
≤ 5 µM: NCI-H460 | MIA PaCa-2 | U2OS | HT-29

CC(C)(c1ccccc1Cl)N1CCN(Cc2ccc3c(c2)c(-c2ccc(OC(F)(F)F)cc2)cn3CCCN)CC1 [C166; Formic Acid]
≤ 5 µM: NCI-H460 | MIA PaCa-2 | U2OS | HT-29

COc1cc(CN2CCN(Cc3ccc4c(c3)c(-c3ccc(OC(F)(F)F)cc3)cn4CCCN)CC2)cc(OC)c1 [C11; HCl]
≤ 5 µM: NCI-H460 | MIA PaCa-2 | U2OS

NCCCn1cc(-c2ccc(OC(F)(F)F)cc2)c2cc(CN3CCC4(CCN(Cc5ccccc5Cl)CC4)C3)ccc21 [C169; HCl]
≤ 5 µM: NCI-H460 | MIA PaCa-2 | U2OS | HT-29

NCCCn1cc(-c2ccc(OC(F)(F)F)cc2)c2cc(CN3CCN(Cc4cccc(Cl)c4Cl)CC3)ccc21 [C164; HCl]
≤ 5 µM: NCI-H460 | MIA PaCa-2 | U2OS

COc1ccc(-c2cn(CCCN)c3ccc(CN4CCN(Cc5c(Cl)cccc5Cl)CC4)cc23)cc1 [C22; Formic acid]
≤ 5 µM: NCI-H460 | MIA PaCa-2 | NCI-H2023 | U2OS

CN(CCN(C)Cc1ccccc1Cl)Cc1ccc2c(c1)c(-c1ccc(OC(F)(F)F)cc1)cn2CCCN [C172; HCl]
≤ 5 µM: NCI-H460 | MIA PaCa-2 | U2OS

NCCN(CCN)CCCn1cc(-c2ccc(OC(F)(F)F)cc2)c2cc(CN3CCN(Cc4c(Cl)cccc4Cl)CC3)ccc21 [C7; Formic acid]
≤ 5 µM: NCI-H460 | MIA PaCa-2 | U2OS

CCc1ccc(-c2cn(CCCN)c3ccc(CN4CC5CCC(C4)N5Cc4ccccc4Cl)cc23)cc1 [C157; HCl]
≤ 5 µM: NCI-H460 | MIA PaCa-2 | U2OS

NCCCn1cc(-c2ccc(OC(F)(F)F)cc2)c2cc(CN3CCC4(CC3)CCN(Cc3ccccc3Cl)C4)ccc21 [C5; HCl]
≤ 5 µM: NCI-H460 | MIA PaCa-2 | U2OS
